How the values were obtained:
human PDE5 = target: T1, human PDE5 (Homo sapiens, UniProt O76074); assay: Inhibition of PDE5 activity (modified SPA test, human platelet lysate); assay type: biochemical; details: PDE5-containing human platelet lysate, 0.5 μM cGMP substrate, 37° C.
T1 construct: from tissue; host or cells: human platelets from fresh donor blood (10,000 g supernatant of sonified platelets)
Description: As a source for human PDE5, platelets were used. For that purpose, 150 ml fresh blood from human donors anticoagulated with citrate [final concentration 0.3% (w/v)] was centrifuged at 200 g for 10 min to obtain the so-called platelet-rich-plasma (PRP) as a supernatant. 1/10 volume of ACD solution (85 mM Na3-citrate, 111 mM D-glucose, 71 mM citric acid, pH 4.4) was added to 9/10 volume of PRP. After centrifugation (1,400 g, 10 min) the cell pellet was resuspended in 3 ml homogenization buffer (NaCl 140 mM, KCl 3.8 mM, EGTA 1 mM, MgCl2 1 mM, Tris-HCl 20 mM, beta-mercaptoethanol 1 mM, pH 8.2) plus protease-inhibitor mix giving rise to the final concentrations of 0.5 mM Pefablock (Roche), 10 μM Leupeptin, 5 μM Trypsininhibitor, 2 mM Benzamidin and 10 μM Pepstatin A. The suspension was sonified and thereafter centrifuged for 15 min at 10,000 g. The resulting supernatant (platelet lysate) was used for enzymatic testings.
PDE5A1 activity is inhibited by the compounds of the invention in a modified SPA (scintillation proximity assay) test, supplied by Amersham Biosciences (see procedural instructions “phosphodiesterase [3H]cAMP SPA enzyme assay, code TRKQ 7090”), carried out in 96-well microtitre plates (MTP's). The test volume is 100 μl and contains 20 mM Tris buffer (pH 7.4), 0.1 mg of BSA (bovine serum albumin)/ml, 5 mM Mg^2+, 1 μM motapizone, 10 nM PDE2 inhibitor BAY-60-7550, 0.5 μM cGMP (including about 50,000 cpm of [3H]cGMP as a tracer), 1 μl of the respective compound dilution in dimethylsulfoxide (DMSO) and sufficient PDE5-containing platelet lysat (10,000×g supernatant, see above) to ensure that 10-20 wt % of the cGMP is converted under the said experimental conditions. […] After a preincubation of 5 min at 37° C., the reaction was started by adding the substrate (cGMP) and the assay was incubated for a further 15 min; after that, it was stopped by adding SPA beads (50 μl). In accordance with the manufacturer's instructions, the SPA beads had previously been resuspended in water, but were then diluted 1:3 (v/v) in water; the diluted solution also contains 3 mM 8-methoxymethyl-3-isobutyl-1-methylxanthine (IBMX) to ensure a complete PDE activity stop. After the beads have been sedimented (>30 min), the MTP's are analyzed in commercially available luminescence detection devices. The corresponding IC50 values of the compounds for the inhibition of PDE activity are determined from the concentration-effect curves by means of non-linear regression.

| Structure (SMILES) | IC50 (human PDE5) | melting point |
| --- | --- | --- |
| COc1ccc(Cc2nc3c(c4c2[nH]c2ccccc24)C(O)CC(C)(C)C3)cc1 (centres unmarked) [Example 47, 6-(4-Methoxy-benzyl)-3,3-dimethyl-2,3,4,7-tetrahydro-1H-indolo[2,3-c]quinolin-1-ol] | 5.37 nM | 146 °C |
| COc1ccc(Cc2nc3c(c4c2[nH]c2ccccc24)C(O)CCC3)cc1 (centres unmarked) [Example 48, 6-(4-Methoxy-benzyl)-2,3,4,7-tetrahydro-1H-indolo[2,3-c]quinolin-1-ol] | 13.2 nM | 204 °C |
| OC1CCCc2nc(Cc3ccccc3)c3[nH]c4ccccc4c3c21 (centres unmarked) [Example 49, 6-Benzyl-2,3,4,7-tetrahydro-1H-indolo[2,3-c]quinolin-1-ol] | 66.1 nM | 211 °C |
| CC1(C)Cc2nc(Cc3ccc(O)cc3)c3[nH]c4ccccc4c3c2C(O)C1 (centres unmarked) [Example 51, 6-(4-Hydroxy-benzyl)-3,3-dimethyl-2,3,4,7-tetrahydro-1H-indolo[2,3-c]quinolin-1-ol] | 5.5 nM | 212 °C |
| COc1ccc(Cc2c3[nH]c4ccccc4c3c3c([n+]2[O-])CC(C)(C)CC3O)cc1 (centres unmarked) [Example 52, 6-(4-Methoxy-benzyl)-3,3-dimethyl-5-oxy-2,3,4,7-tetrahydro-1H-indolo[2,3-c]quinolin-1-ol] | 20.4 nM | 185 °C |
| CC1(C)Cc2nc(Cc3ccc(OC(F)(F)F)cc3)c3[nH]c4ccccc4c3c2C(O)C1 (centres unmarked) [Example 53, 3,3-Dimethyl-6-(4-trifluoromethoxy-benzyl)-2,3,4,7-tetrahydro-1H-indolo[2,3-c]quinolin-1-ol] | 89.1 nM | 117 to 119 °C |
| CC1(C)Cc2nc(Cc3ccc(N)cc3)c3[nH]c4ccccc4c3c2C(O)C1 (centres unmarked) [Example 54, 6-(4-Amino-benzyl)-3,3-dimethyl-2,3,4,7-tetrahydro-1H-indolo[2,3-c]quinolin-1-ol] | 26.9 nM | 206 to 208 °C |
| CCOc1ccc(Cc2nc3c(c4c2[nH]c2ccccc24)C(O)CC(C)(C)C3)cc1 (centres unmarked) [Example 55, 6-(4-Ethoxy-benzyl)-3,3-dimethyl-2,3,4,7-tetrahydro-1H-indolo[2,3-c]quinolin-1-ol] | 25.1 nM | 182 to 184 °C |
| CC1(C)Cc2nc(Cc3cccc([N+](=O)[O-])c3)c3[nH]c4ccccc4c3c2C(O)C1 (centres unmarked) [Example 56, 3,3-Dimethyl-6-(3-nitro-benzyl)-2,3,4,7-tetrahydro-1H-indolo[2,3-c]quinolin-1-ol] | 191 nM | 228 to 230 °C |
| CC1(C)Cc2nc(Cc3cccc(N)c3)c3[nH]c4ccccc4c3c2C(O)C1 (centres unmarked) [Example 57, 6-(3-Amino-benzyl)-3,3-dimethyl-2,3,4,7-tetrahydro-1H-indolo[2,3-c]quinolin-1-ol] | 4.07 nM | 225 to 227 °C |
| CC(C)c1ccc(Cc2nc3c(c4c2[nH]c2ccccc24)C(O)CC(C)(C)C3)cc1 (centres unmarked) [Example 58, 6-(4-Isopropyl-benzyl)-3,3-dimethyl-2,3,4,7-tetrahydro-1H-indolo[2,3-c]quinolin-1-ol] | 148 nM | 112 to 114 °C |
| CCC(=O)Nc1ccc(Cc2nc3c(c4c2[nH]c2ccccc24)C(O)CC(C)(C)C3)cc1 (centres unmarked) [Example 60, N-[4-(1-Hydroxy-3,3-dimethyl-2,3,4,7-tetrahydro-1H-indolo[2,3-c]quinolin-6-ylmethyl)-phenyl]-propionamide] | 70.8 nM | 165 to 168 °C |

More lines, now with the values ahead:

| IC50 (human PDE5) | melting point | Structure (SMILES) |
| --- | --- | --- |
| 7.24 nM | 120 to 123 °C | OC1CCCc2nc(Cc3ccc4c(c3)OCO4)c3[nH]c4ccccc4c3c21 (centres unmarked) [Example 61, 6-Benzo[1,3]dioxol-5-ylmethyl-2,3,4,7-tetrahydro-1H-indolo[2,3-c]quinolin-1-ol] |
| 50.1 nM | 118 to 125 °C | CC1(C)Cc2nc(Cc3cccc(Br)c3)c3[nH]c4ccccc4c3c2C(O)C1 (centres unmarked) [Example 62, 6-(3-Bromo-benzyl)-3,3-dimethyl-2,3,4,7-tetrahydro-1H-indolo[2,3-c]quinolin-1-ol] |
| 46.8 nM | 195 to 197 °C | CC(=O)Nc1ccc(Cc2nc3c(c4c2[nH]c2ccccc24)C(O)CC(C)(C)C3)cc1 (centres unmarked) [Example 63, N-[4-(1-Hydroxy-3,3-dimethyl-2,3,4,7-tetrahydro-1H-indolo[2,3-c]quinolin-6-ylmethyl)-phenyl]-acetamide] |
| 28.8 nM | 187 to 189 °C | CC1(C)Cc2nc(Cc3ccc(F)cc3)c3[nH]c4ccccc4c3c2C(O)C1 (centres unmarked) [Example 64, 6-(4-Fluoro-benzyl)-3,3-dimethyl-2,3,4,7-tetrahydro-1H-indolo[2,3-c]quinolin-1-ol] |
| 16.6 nM | 121 to 128 °C | CC1(C)Cc2nc(Cc3ccc(F)c(F)c3)c3[nH]c4ccccc4c3c2C(O)C1 (centres unmarked) [Example 66, 6-(3,4-Difluoro-benzyl)-3,3-dimethyl-2,3,4,7-tetrahydro-1H-indolo[2,3-c]quinolin-1-ol] |
| 7.94 nM | 117 to 123 °C | CC1(C)Cc2nc(Cc3cc(F)cc(F)c3)c3[nH]c4ccccc4c3c2C(O)C1 (centres unmarked) [Example 67, 6-(3,5-Difluoro-benzyl)-3,3-dimethyl-2,3,4,7-tetrahydro-1H-indolo[2,3-c]quinolin-1-ol] |
| 302 nM | 195 to 197 °C | CC(=O)Nc1ccc(Cc2nc3c(c4c2[nH]c2ccccc24)C(O)CCC3)cc1 (centres unmarked) [Example 69, N-[4-(1-Hydroxy-2,3,4,7-tetrahydro-1H-indolo[2,3-c]quinolin-6-ylmethyl)-phenyl]-acetamide] |
| 22.9 nM | 236 to 238 °C | CC1(C)Cc2nc(Cc3ccc(NC(N)=O)cc3)c3[nH]c4ccccc4c3c2C(O)C1 (centres unmarked) [Example 70, [4-(1-Hydroxy-3,3-dimethyl-2,3,4,7-tetrahydro-1H-indolo[2,3-c]quinolin-6-ylmethyl)-phenyl]-urea] |
| 2.51 nM | 118 to 120 °C | COc1ccc(Cc2nc3c(c4c2[nH]c2ccccc24)C(O)CCC3)cc1F (centres unmarked) [Example 71, 6-(3-Fluoro-4-methoxy-benzyl)-2,3,4,7-tetrahydro-1H-indolo[2,3-c]quinolin-1-ol] |
| 0.2 nM | 131 to 133 °C | COc1c(F)cc(Cc2nc3c(c4c2[nH]c2ccccc24)C(O)CC(C)(C)C3)cc1F (centres unmarked) [Example 73, 6-(3,5-Difluoro-4-methoxy-benzyl)-3,3-dimethyl-2,3,4,7-tetrahydro-1H-indolo[2,3-c]quinolin-1-ol] |
| 0.324 nM | 197 to 198 °C | COc1ccc(Cc2nc3c(c4c2[nH]c2ccccc24)C(O)CC(C)(C)C3)c(F)c1F (centres unmarked) [Example 74, 6-(2,3-Difluoro-4-methoxy-benzyl)-3,3-dimethyl-2,3,4,7-tetrahydro-1H-indolo[2,3-c]quinolin-1-ol] |
| 41.7 nM | 232 to 234 °C | NC(=O)Nc1ccc(Cc2nc3c(c4c2[nH]c2ccccc24)C(=O)CCC3)cc1 [Example 76, [4-(1-Oxo-2,3,4,7-tetrahydro-1H-indolo[2,3-c]quinolin-6-ylmethyl)-phenyl]-urea] |
| 6.31 nM | 158 °C | COc1ccc(Cc2nc3c(c4c2[nH]c2ccccc24)CCC(C)(C)C3)cc1 [Example 77, 6-(4-Methoxy-benzyl)-3,3-dimethyl-2,3,4,7-tetrahydro-1H-indolo[2,3-c]quinoline] |
| 15.5 nM | 202 °C | COc1ccc(Cc2c3[nH]c4ccccc4c3c3c([n+]2[O-])CC(C)(C)CC3=O)cc1 [Example 78, 6-(4-Methoxy-benzyl)-3,3-dimethyl-5-oxy-2,3,4,7-tetrahydro-indolo[2,3-c]quinolin-1-one] |
| 0.794 nM | 164 to 166 °C | COc1ccc(Cc2nc3c(c4c2[nH]c2ccccc24)[C@@H](O)CC(C)(C)C3)cc1F [Example 79, (S)-6-(3-Fluoro-4-methoxy-benzyl)-3,3-dimethyl-2,3,4,7-tetrahydro-1H-indolo[2,3-c]quinolin-1-ol] |
| 100 nM | 118 to 120 °C | COc1ccc(Cc2nc3c(c4c2[nH]c2ccccc24)[C@H](O)CC(C)(C)C3)cc1 [Example 80, (R)-6-(4-Methoxy-benzyl)-3,3-dimethyl-2,3,4,7-tetrahydro-1H-indolo[2,3-c]quinolin-1-ol] |
